In brackets after ≈: the same amount, converted by molar mass.
How the values were obtained:
Staphylococcus aureus [1] = experiment: Antibacterial activity against Staphylococcus aureus ATCC 25923 assessed as effect on planktonic growth at 1.37 ug/ml after 20 hrs relative to control; type: functional
Pseudomonas aeruginosa [2] = experiment: Antibacterial activity against Pseudomonas aeruginosa ATCC 27853 assessed as effect on planktonic growth at 87.5 ug/ml after 20 hrs relative to control; type: functional
Streptococcus mutans [3] = experiment: Antibacterial activity against Streptococcus mutans ATCC 25175 assessed as effect on planktonic growth at 87.5 ug/ml after 20 hrs relative to control; type: functional
Pseudomonas aeruginosa [4] = experiment: Antibacterial activity against Pseudomonas aeruginosa ATCC 27853 assessed as effect on planktonic growth at 0.34 ug/ml after 20 hrs relative to control; type: functional
Pseudomonas aeruginosa [5] = experiment: Antibacterial activity against Pseudomonas aeruginosa ATCC 27853 assessed as effect on planktonic growth at 0.17 ug/ml after 20 hrs relative to control; type: functional
Streptococcus mutans [6] = experiment: Antibacterial activity against Streptococcus mutans ATCC 25175 assessed as effect on planktonic growth at 10.9 ug/ml after 20 hrs relative to control; type: functional
[7] = tested on: Staphylococcus epidermidis; experiment: Antibacterial activity against Staphylococcus epidermidis ATCC 35547 assessed as effect on planktonic growth at 21.9 ug/ml after 20 hrs relative to control; type: functional
[8] = tested on: Staphylococcus epidermidis; experiment: Antibacterial activity against Staphylococcus epidermidis ATCC 35547 assessed as effect on planktonic growth at 0.34 ug/ml after 20 hrs relative to control; type: functional
Streptococcus mutans [9] = experiment: Antibacterial activity against Streptococcus mutans ATCC 25175 assessed as effect on planktonic growth at 43.8 ug/ml after 20 hrs relative to control; type: functional
[10] = tested on: Staphylococcus epidermidis; experiment: Antibacterial activity against Staphylococcus epidermidis ATCC 35547 assessed as effect on planktonic growth at 1.37 ug/ml after 20 hrs relative to control; type: functional
Streptococcus mutans [11] = experiment: Antibacterial activity against Streptococcus mutans ATCC 25175 assessed as effect on planktonic growth at 5.5 ug/ml after 20 hrs relative to control; type: functional
Staphylococcus aureus [12] = experiment: Antibacterial activity against Staphylococcus aureus ATCC 25923 assessed as effect on planktonic growth at 43.8 ug/ml after 20 hrs relative to control; type: functional
Staphylococcus aureus [13] = experiment: Antibacterial activity against Staphylococcus aureus ATCC 25923 assessed as effect on planktonic growth at 0.17 ug/ml after 20 hrs relative to control; type: functional
Staphylococcus aureus [14] = experiment: Antibacterial activity against Staphylococcus aureus ATCC 25923 assessed as effect on planktonic growth at 0.68 ug/ml after 20 hrs relative to control; type: functional
Pseudomonas aeruginosa [15] = experiment: Antibacterial activity against Pseudomonas aeruginosa ATCC 27853 assessed as effect on planktonic growth at 5.5 ug/ml after 20 hrs relative to control; type: functional
Staphylococcus aureus [16] = experiment: Antibacterial activity against Staphylococcus aureus ATCC 25923 assessed as effect on planktonic growth at 10.9 ug/ml after 20 hrs relative to control; type: functional
Streptococcus mutans [17] = experiment: Antibacterial activity against Streptococcus mutans ATCC 25175 assessed as effect on planktonic growth at 21.9 ug/ml after 20 hrs relative to control; type: functional
Staphylococcus aureus [18] = experiment: Antibacterial activity against Staphylococcus aureus ATCC 25923 assessed as effect on planktonic growth at 87.5 ug/ml after 20 hrs relative to control; type: functional
[19] = tested on: Staphylococcus epidermidis; experiment: Antibacterial activity against Staphylococcus epidermidis ATCC 35547 assessed as effect on planktonic growth at 0.68 ug/ml after 20 hrs relative to control; type: functional
Staphylococcus aureus [20] = experiment: Antibacterial activity against Staphylococcus aureus ATCC 25923 assessed as effect on planktonic growth at 0.34 ug/ml after 20 hrs relative to control; type: functional
Pseudomonas aeruginosa [21] = experiment: Antibacterial activity against Pseudomonas aeruginosa ATCC 27853 assessed as effect on planktonic growth at 1.37 ug/ml after 20 hrs relative to control; type: functional
[22] = tested on: Staphylococcus epidermidis; experiment: Antibacterial activity against Staphylococcus epidermidis ATCC 35547 assessed as effect on planktonic growth at 2.73 ug/ml after 20 hrs relative to control; type: functional
Pseudomonas aeruginosa [23] = experiment: Antibacterial activity against Pseudomonas aeruginosa ATCC 27853 assessed as inhibition of biofilm formation after 20 hrs by crystal-violet staining method; type: functional, organism-based; conditions: for IC50: ATCC 27853, 20 h
Streptococcus mutans [24] = experiment: Antibacterial activity against Streptococcus mutans ATCC 25175 assessed as effect on planktonic growth at 0.17 ug/ml after 20 hrs relative to control; type: functional
[25] = tested on: Staphylococcus epidermidis; experiment: Antibacterial activity against Staphylococcus epidermidis ATCC 35547 assessed as effect on planktonic growth at 0.17 ug/ml after 20 hrs relative to control; type: functional
[26] = tested on: Staphylococcus epidermidis; experiment: Antibacterial activity against Staphylococcus epidermidis ATCC 35547 assessed as effect on planktonic growth at 10.9 ug/ml after 20 hrs relative to control; type: functional
Pseudomonas aeruginosa [27] = experiment: Antibacterial activity against Pseudomonas aeruginosa ATCC 27853 assessed as effect on planktonic growth at 2.73 ug/ml after 20 hrs relative to control; type: functional
Staphylococcus aureus [28] = experiment: Antibacterial activity against Staphylococcus aureus ATCC 25923 assessed as effect on planktonic growth at 5.5 ug/ml after 20 hrs relative to control; type: functional
[29] = tested on: Staphylococcus epidermidis; experiment: Antibacterial activity against Staphylococcus epidermidis ATCC 35547 assessed as effect on planktonic growth at 43.8 ug/ml after 20 hrs relative to control; type: functional
Pseudomonas aeruginosa [30] = experiment: Antibacterial activity against Pseudomonas aeruginosa ATCC 27853 assessed as effect on planktonic growth at 0.68 ug/ml after 20 hrs relative to control; type: functional
Streptococcus mutans [31] = experiment: Antibacterial activity against Streptococcus mutans ATCC 25175 assessed as effect on planktonic growth at 0.68 ug/ml after 20 hrs relative to control; type: functional
Streptococcus mutans [32] = experiment: Antibacterial activity against Streptococcus mutans ATCC 25175 assessed as effect on planktonic growth at 1.37 ug/ml after 20 hrs relative to control; type: functional
Pseudomonas aeruginosa [33] = experiment: Antibacterial activity against Pseudomonas aeruginosa ATCC 27853 assessed as effect on planktonic growth at 21.9 ug/ml after 20 hrs relative to control; type: functional
Pseudomonas aeruginosa [34] = experiment: Antibacterial activity against Pseudomonas aeruginosa ATCC 27853 assessed as effect on planktonic growth at 10.9 ug/ml after 20 hrs relative to control; type: functional
Streptococcus mutans [35] = experiment: Antibacterial activity against Streptococcus mutans ATCC 25175 assessed as effect on planktonic growth at 0.34 ug/ml after 20 hrs relative to control; type: functional
[36] = tested on: Staphylococcus epidermidis; experiment: Antibacterial activity against Staphylococcus epidermidis ATCC 35547 assessed as effect on planktonic growth at 5.5 ug/ml after 20 hrs relative to control; type: functional
Staphylococcus aureus [37] = experiment: Antibacterial activity against Staphylococcus aureus ATCC 25923 assessed as effect on planktonic growth at 2.73 ug/ml after 20 hrs relative to control; type: functional
Staphylococcus aureus [38] = experiment: Antibacterial activity against Staphylococcus aureus ATCC 25923 assessed as effect on planktonic growth at 21.9 ug/ml after 20 hrs relative to control; type: functional
[39] = tested on: Staphylococcus epidermidis; experiment: Antibacterial activity against Staphylococcus epidermidis ATCC 35547 assessed as effect on planktonic growth at 87.5 ug/ml after 20 hrs relative to control; type: functional
Pseudomonas aeruginosa [40] = experiment: Antibacterial activity against Pseudomonas aeruginosa ATCC 27853 assessed as effect on planktonic growth at 43.8 ug/ml after 20 hrs relative to control; type: functional
[41] = tested on: Staphylococcus epidermidis; experiment: Antibacterial activity against Staphylococcus epidermidis ATCC 35547 assessed as inhibition of biofilm formation after 20 hrs by crystal-violet staining method; type: functional, organism-based; conditions: for IC50: ATCC 35547, 20 h
Streptococcus mutans [42] = experiment: Antibacterial activity against Streptococcus mutans ATCC 25175 assessed as effect on planktonic growth at 2.73 ug/ml after 20 hrs relative to control; type: functional

`COc1ccc(Cl)cc1C1=C(Br)C(=O)N(CC(C)C)/C1=C/c1ccccc1Br` gave an Activity (Staphylococcus aureus [1]) of -2.5%, an Activity (Pseudomonas aeruginosa [2]) of -9.1% and an Activity (Streptococcus mutans [3]) of 6.4%. It also gave an Activity (Pseudomonas aeruginosa [4]) of -3.9%, an Activity (Pseudomonas aeruginosa [5]) of -1.8% and an Activity (Streptococcus mutans [6]) of -4.3%. The Activity [7] was 10.6%, the Activity [8] was 5.5% and the Activity (Streptococcus mutans [9]) was 1.5%. For the same molecule, the Activity [10] was -0.4%, the Activity (Streptococcus mutans [11]) was 1.8% and the Activity (Staphylococcus aureus [12]) was -4.3%. The Activity (Staphylococcus aureus [13]) was 2.7%, the Activity (Staphylococcus aureus [14]) was 3% and the Activity (Pseudomonas aeruginosa [15]) was -5.1%. The Activity (Staphylococcus aureus [16]) was -4.6%, the Activity (Streptococcus mutans [17]) was 7% and the Activity (Staphylococcus aureus [18]) was 3.6%. For the same molecule, the Activity [19] was -2.2%, the Activity (Staphylococcus aureus [20]) was -0.7% and the Activity (Pseudomonas aeruginosa [21]) was -5.8%. The Activity [22] was -3.7%, the inhibition (Pseudomonas aeruginosa [23]) was “Dose-dependent effect” and the IC50 (Pseudomonas aeruginosa [23]) was over 87.5 µg/mL. For the same molecule, the Activity (Streptococcus mutans [24]) was -19.5%, the Activity [25] was 1.9% and the Activity [26] was -0.4%. The Activity (Pseudomonas aeruginosa [27]) was -5.8%, the Activity (Staphylococcus aureus [28]) was 0.2% and the Activity [29] was 21.8%. For the same molecule, the Activity (Pseudomonas aeruginosa [30]) was -7.5%, the Activity (Streptococcus mutans [31]) was -13.4% and the Activity (Streptococcus mutans [32]) was -8.2%. For the same molecule, the Activity (Pseudomonas aeruginosa [33]) was -14.6%, the Activity (Pseudomonas aeruginosa [34]) was -18.1% and the Activity (Streptococcus mutans [35]) was -18.8%. The Activity [36] was 2.7%, the Activity (Staphylococcus aureus [37]) was 7.5% and the Activity (Staphylococcus aureus [38]) was -6.2%. The Activity [39] was 31.5%, the Activity (Pseudomonas aeruginosa [40]) was -14.6% and the inhibition [41] was “Dose-dependent effect”. The IC50 [41] was 33.2 µg/mL (≈ 63.2 µM) and the Activity (Streptococcus mutans [42]) was -3.3%.
Work on `COc1ccc(Br)cc1C1=C(Br)C(=O)N(CC(C)C)/C1=C\c1ccc(Br)cc1` yielded an Activity (Staphylococcus aureus [1]) of -0.5%, an Activity (Pseudomonas aeruginosa [2]) of 12.6% and an Activity (Streptococcus mutans [3]) of -15.8%. For the same molecule, the Activity (Pseudomonas aeruginosa [4]) was 0.3%, the Activity (Pseudomonas aeruginosa [5]) was 4.1% and the Activity (Streptococcus mutans [6]) was -5%. It also gave an Activity [7] of 32.6%, an Activity [8] of 14.1% and an Activity (Streptococcus mutans [9]) of -31.4%. For the same molecule, the Activity [10] was 5.7%, the Activity (Streptococcus mutans [11]) was -3.3% and the Activity (Staphylococcus aureus [12]) was 5.5%. The Activity (Staphylococcus aureus [13]) was -3.9%, the Activity (Staphylococcus aureus [14]) was -0.5% and the Activity (Pseudomonas aeruginosa [15]) was 0.6%. For the same molecule, the Activity (Staphylococcus aureus [16]) was 1%, the Activity (Streptococcus mutans [17]) was -14.6% and the Activity (Staphylococcus aureus [18]) was 6%. The Activity [19] was 10%, the Activity (Staphylococcus aureus [20]) was 0.3% and the Activity (Pseudomonas aeruginosa [21]) was 1%. The Activity [22] was 11.2%, the inhibition (Pseudomonas aeruginosa [23]) was “Dose-dependent effect” and the IC50 (Pseudomonas aeruginosa [23]) was over 87.5 µg/mL. It also gave an Activity (Streptococcus mutans [24]) of 6%, an Activity [25] of 3.3% and an Activity [26] of 12.3%. For the same molecule, the Activity (Pseudomonas aeruginosa [27]) was 0.8%, the Activity (Staphylococcus aureus [28]) was -2.1% and the Activity [29] was 78.7%. For the same molecule, the Activity (Pseudomonas aeruginosa [30]) was -0.2%, the Activity (Streptococcus mutans [31]) was 5.8% and the Activity (Streptococcus mutans [32]) was 8.3%. It also gave an Activity (Pseudomonas aeruginosa [33]) of -1.3%, an Activity (Pseudomonas aeruginosa [34]) of -2.6% and an Activity (Streptococcus mutans [35]) of -0.3%. It also gave an Activity [36] of 0.9%, an Activity (Staphylococcus aureus [37]) of -2.4% and an Activity (Staphylococcus aureus [38]) of 0.8%. For the same molecule, the Activity [39] was 88.4%, the Activity (Pseudomonas aeruginosa [40]) was 3.4% and the inhibition [41] was “Dose-dependent effect”. It also gave an IC50 [41] of 67.5 µg/mL (≈ 118 µM) and an Activity (Streptococcus mutans [42]) of -5.3%.
